# Assay results from patent US20120020989A1, “METHODS OF TREATING COLORECTAL CANCER” (KYOWA HAKKO KIRIN CO., LTD., priority 2010, published 2012).
# Columns and labels:
# LS174T [1] = experiment: Nude rat LS174T subcutaneous xenograft model, tumor volume
# LS174T [2] = experiment: SCID mouse LS174T intraperitoneal xenograft model, surviving period; type: in vivo; conditions: LS174T i.p., CPT-11 10 mg/kg; for surviving period median (median survival time: MST): N26 antibody 5 mg/kg, 5-FU 50 mg/kg, caudal vein once a week x4, adjuvant group 24 days; for prolongation of surviving period in comparison with the adjuvant alone group: log-rank test, N26 5 mg/kg, 5-FU 50 mg/kg once a week x4
# Method: (1) SCID mouse and colorectal cancer cell line
# SCID mice (C.B-17/Icr-scid, female, 6-weeks old) were purchased from CLEA Japan Inc. and reared in an SPF (specific pathogen free) equipment.
# A colorectal cancer-derived cell line LS174T (purchased from ATCC) was used as the tumor cell and cultured using RPMI 1640 medium (manufactured by GIBCO, Invitrogen) containing 10% FBS (manufactured by HyClone) and 1% penicillin-streptomycin (manufactured by GIBCO, Invitrogen).
# A xenograft model was prepared by intraperitoneally transplanting the cultured LS174T cell into the SCID mouse at a dose of 1×10^7 cells/200 μl/head.
# An anti-A33 human antibody (KRN330) (hereinafter referred to as N26 antibody) comprising the heavy chain variable region represented by SEQ ID NO:23 and the light chain variable region represented by SEQ ID NO:25 was used as an anti-A33 human antibody.
# 5-FU (5FU Injection 250 Kyowa) was obtained from Kyowa Hakko Kirin Co., Ltd. and CPT-11 (Campto (registered trademark) Injection or Irinotecan Hydrochloride Injection) was obtained from YAKULT HONSHA CO., LTD. In the control group, a dilution medium of the anti-A33 human antibody (10 mM of sodium L-glutamate, 262 mM of D-sorbitol and 0.05 mg/ml of polysorbate 80, pH 5.5) was used.
# Administration schedules of agents are shown in FIG. (A)(a) and FIG. 1(B)(a), respectively. After transplanting the cultured LS174 cell into the abdominal cavity of SCID mice on day 0, their body weights were measured on the next day of the transplantation (on day 1) to divide them into six groups in such a manner that the average body weight of each group became equal (A, B, E and F groups=seven animals per group, C and D groups=six animals per group).
# The grouping day was regarded as the initial administration day, and thereafter, 5 mg/kg of an anti-A33 human antibody, 10 mg/kg of CPT-11 (irinotecan) or 50 mg/kg of 5-FU was administered into the mouse caudal vein at a dose of 10 ml/kg, four times (on day 1, day 8, day 15 and day 22) at a frequency of once a week, and the surviving period was monitored. On the same day of the drug administration, an adjuvant was intravenously administered to the control group.
# Survival curve of each administration group was plotted by the Kaplan-Meier method and the survival curves of each group were compared using log-rank test, with the results shown in FIG. 1(A)(b) and FIG. 1(A)(c) and FIG. 1(B)(b) and FIG. 1(B)(c). In this connection, though the results of FIG. 1(A)(b) and FIG. 1(A)(c) and FIG. 1(B)(b), and FIG. 1(B)(c) are separately shown, these were carried out in the same test, and results of the control group and the N26 antibody (5 mg/kg) group in FIG. 1(A)(b) and FIG. 1(A)(c) are identical to those in FIG. 1(B)(b) and FIG. 1(B)(c).
Compound,"antitumor effect (tumor volume), FIG. 2(b) (LS174T [1]; nude rat LS174T s.c., N26 5 mg/kg, oxaliplatin 15 mg/kg, i.v. day 0, 7, 14, 21)","body weight loss (LS174T [1]; nude rat, oxaliplatin 15 mg/kg administration group)",surviving period median (median survival time: MST) (LS174T [2]) [days],prolongation of surviving period in comparison with the adjuvant alone group (LS174T [2]),"antitumor effect (tumor volume), FIG. 2(a) (LS174T [1]; nude rat LS174T s.c., N26 5 mg/kg, 5-FU 100 mg/kg, i.v. day 0, 7, 14, 21)"
O=C1[O][Pt]2([NH][C@@H]3CCCC[C@H]3[NH]2)[O]C1=O [oxaliplatin],slight antitumor effect,significant body weight loss,–,–,–
"O=c1[nH]cc(F)c(=O)[nH]1 [5-FU, 5-fluorouracil]",–,–,24,prolongation of surviving period was not found,significant antitumor effect
"CCc1c2c(nc3ccc(OC(=O)N4CCC(N5CCCCC5)CC4)cc13)-c1cc3c(c(=O)n1C2)COC(=O)[C@]3(O)CC [CPT-11, irinotecan]",–,–,41,significant prolongation of surviving period,–
